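Five compound concentrations were applied to cells in 96-well plates for 48 hours; endpoints were derived by simple linear interpolation of the resulting dose-response curve. TGI is the concentration that stops growth completely.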
Key:
Assay in all cases: growth of human tumour cells (NCI), 48 h
HCT-15 colon = test system: HCT-15 colon
HL-60(TB) leukemia = test system: HL-60(TB) leukemia
786-0 renal = test system: 786-0 renal
MALME-3M melanoma = test system: MALME-3M melanoma
UO-31 renal = test system: UO-31 renal
KM12 colon = test system: KM12 colon
PC-3 prostate = test system: PC-3 prostate
BT-549 breast = test system: BT-549 breast
SNB-19 CNS = test system: SNB-19 CNS
HOP-62 NSCLC = test system: HOP-62 NSCLC
CCRF-CEM leukemia = test system: CCRF-CEM leukemia
RXF 393 renal = test system: RXF 393 renal
SK-MEL-28 melanoma = test system: SK-MEL-28 melanoma
MDA-MB-231 breast = test system: MDA-MB-231 breast
SF-539 CNS = test system: SF-539 CNS
SK-MEL-5 melanoma = test system: SK-MEL-5 melanoma
SN12C renal = test system: SN12C renal
HS 578T breast = test system: HS 578T breast
HOP-92 NSCLC = test system: HOP-92 NSCLC
SF-295 CNS = test system: SF-295 CNS
T-47D breast = test system: T-47D breast
OVCAR-5 ovarian = test system: OVCAR-5 ovarian
SK-MEL-2 melanoma = test system: SK-MEL-2 melanoma
OVCAR-3 ovarian = test system: OVCAR-3 ovarian
NCI/ADR-RES ovarian = test system: NCI/ADR-RES ovarian
DU-145 prostate = test system: DU-145 prostate
SF-268 CNS = test system: SF-268 CNS
SR leukemia = test system: SR leukemia
NCI-H522 lung = test system: NCI-H522 lung
MOLT-4 leukemia = test system: MOLT-4 leukemia
NCI-H460 lung = test system: NCI-H460 lung
SW-620 colon = test system: SW-620 colon
MDA-MB-435 = test system: MDA-MB-435
HT29 colon = test system: HT29 colon
OVCAR-8 ovarian = test system: OVCAR-8 ovarian
LOX IMVI melanoma = test system: LOX IMVI melanoma
SNB-75 CNS = test system: SNB-75 CNS
UACC-62 melanoma = test system: UACC-62 melanoma
ACHN renal = test system: ACHN renal
A498 renal = test system: A498 renal
NCI-H226 lung = test system: NCI-H226 lung
MDA-N = test system: MDA-N
HCT-116 colon = test system: HCT-116 colon
UACC-257 melanoma = test system: UACC-257 melanoma
IGROV1 ovarian = test system: IGROV1 ovarian
MCF7 breast = test system: MCF7 breast
SK-OV-3 ovarian = test system: SK-OV-3 ovarian
COLO 205 colon = test system: COLO 205 colon
TK-10 renal = test system: TK-10 renal
NCI-H23 lung = test system: NCI-H23 lung
K-562 leukemia = test system: K-562 leukemia
OVCAR-4 ovarian = test system: OVCAR-4 ovarian
EKVX NSCLC = test system: EKVX NSCLC
M14 melanoma = test system: M14 melanoma
HCC-2998 colon = test system: HCC-2998 colon
U251 CNS = test system: U251 CNS
CAKI-1 renal = test system: CAKI-1 renal
RPMI-8226 leukemia = test system: RPMI-8226 leukemia
A549 NSCLC = test system: A549 NSCLC

Measured: TGI

Cc1nc2ccc(S(=O)(=O)Nc3ccccn3)cc2c(=O)n1NS(=O)(=O)c1ccccn1
not listed: A549 NSCLC
> 100 µM: all other assays above

CCOc1cc(NC(C)=O)ccc1C(=O)NN1C(=O)C(Cl)C1c1ccc(O)c(OC)c1 (stereo not given)
29.5 µM: SNB-19 CNS
30.8 µM: T-47D breast
35.8 µM: HOP-62 NSCLC
57.4 µM: NCI/ADR-RES ovarian
39.1 µM: SF-295 CNS
25.1 µM: K-562 leukemia
31 µM: SN12C renal
28.4 µM: A498 renal
26 µM: 786-0 renal
82.3 µM: OVCAR-8 ovarian
31.5 µM: EKVX NSCLC
26.8 µM: SF-539 CNS
31.4 µM: CAKI-1 renal
29 µM: DU-145 prostate
60.1 µM: SW-620 colon
29.2 µM: RXF 393 renal
32.2 µM: HCC-2998 colon
32.5 µM: A549 NSCLC
33.6 µM: KM12 colon | SK-OV-3 ovarian
11.1 µM: UO-31 renal
27 µM: UACC-257 melanoma
28.1 µM: M14 melanoma
22.8 µM: SK-MEL-5 melanoma | NCI-H522 lung
32.3 µM: HOP-92 NSCLC
7.79 µM: LOX IMVI melanoma
26.9 µM: MDA-MB-231 breast
30.3 µM: ACHN renal
33.5 µM: SK-MEL-2 melanoma
30.4 µM: MCF7 breast
21.9 µM: BT-549 breast
33.9 µM: OVCAR-5 ovarian
19.5 µM: SR leukemia
38.2 µM: SK-MEL-28 melanoma
40.5 µM: RPMI-8226 leukemia
35.9 µM: SF-268 CNS
11.5 µM: TK-10 renal
28.3 µM: PC-3 prostate
25.5 µM: UACC-62 melanoma
37.7 µM: HCT-116 colon
25.8 µM: CCRF-CEM leukemia
51.5 µM: HS 578T breast
29.8 µM: MDA-MB-435
22 µM: MALME-3M melanoma
38.5 µM: OVCAR-3 ovarian
33.1 µM: NCI-H460 lung
38.3 µM: HL-60(TB) leukemia
19 µM: MOLT-4 leukemia
28.2 µM: IGROV1 ovarian
48.3 µM: NCI-H226 lung
29.9 µM: HCT-15 colon
24.1 µM: SNB-75 CNS
35.1 µM: COLO 205 colon
31.6 µM: OVCAR-4 ovarian
25.4 µM: NCI-H23 lung
31.9 µM: HT29 colon | MDA-N

O=C1CSC2(CC(/C=C/c3cccc(Br)c3)=NN2c2cccc(S(=O)(=O)O)c2)N1c1nc2ccccc2s1 (stereo not given)
not listed: HL-60(TB) leukemia
> 100 µM: all other assays above

CC(=O)C(C(=N)C#N)C(=O)Nc1ccccc1 (stereo not given)
not listed: HL-60(TB) leukemia | UO-31 renal | HCC-2998 colon
> 100 µM: all other assays above
